Measured values reported in patent publication US20250213571A1, “TYK2 INHIBITORS AND USES THEREOF” (Alumis Inc., priority 2022, published 2025).
Like-named read-outs stand apart in the source and are kept apart here.

Assays:
[1] = target: JAK3 JH1 (Homo sapiens (Human), UniProt P52333); assay: JAK3 JH1 binding (Kd, Table 2); settings: JH1 domain
[2] = system: INFα Induced pSTAT5 in Human PBMC; assay: INFα induced pSTAT5 in human PBMC; type: cell-based; settings: 0.25 h, human PBMCs, INFα 5000 units/ml 15 minutes, p-STAT5, read-out: IFNa, PBMCs, p-STAT5 (IC50)
Method: Fresh Human PBMCs were resuspended in RPMI 1640 medium with 10% FBS. Cells were seeded in a round bottom 96-well plate at the concentration of 200,000 cells/well. A 10-point dilution series of test compound (top dose 10 uM, 1:5 dilution) was added to the well using the liquid dispenser (Tecan D300e) and incubated for 1 hour at 37 C. Then human INFα recombinant protein (R&D Systems) was added to the well at the final concentration of 5000 units/ml and incubated for 15 minutes at 37 C. Cell lysates were prepared and analyzed by Phospho STAT5 (Tyr693) Kit (Meso Scale Discovery) following manufacturer's protocol.
For calculation of the inhibition rate, the relative pSTAT5 signal of each well=pSTAT5 signal of each well−the average pSTAT5 signal of baseline.
The inhibition %=(the average pSTAT5 signal of INFα treatment wells−the relative of pSTAT5 signal in each compound containing well)/the average pSTAT5 signal of INFα treatment wells*100%
The curve was plotted as the inhibition % (y-axis) vs. compounds concentration (x-axis) and is fitted with log(inhibitor) vs. normalized response—Variable slope by GraphPad Prism7.0.

[3] = target: JAK1 JH2 (Homo sapiens (Human), UniProt P23458); assay: JAK1 JH2 binding (Kd, Table 2); settings: JH2 domain
JAK1 JH2, sequence (P23458 583-855): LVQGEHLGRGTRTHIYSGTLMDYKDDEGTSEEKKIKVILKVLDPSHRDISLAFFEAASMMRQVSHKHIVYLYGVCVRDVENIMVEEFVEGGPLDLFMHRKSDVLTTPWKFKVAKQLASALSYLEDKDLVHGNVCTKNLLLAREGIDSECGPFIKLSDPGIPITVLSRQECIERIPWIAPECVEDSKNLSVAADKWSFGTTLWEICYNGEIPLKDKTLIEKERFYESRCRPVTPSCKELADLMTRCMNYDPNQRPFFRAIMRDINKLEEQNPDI

[4] = system: IFNa, PBMCs, p-STAT3; assay: IFNa induced p-STAT3 in PBMCs; type: cell-based; settings: Homo sapiens, PBMC, IFNa stimulated PBMCs
[5] = target: JAK2 JH1 (Homo sapiens (Human), UniProt O60674); assay: JAK2 JH1 binding (Kd, Table 2); settings: JH1 domain
JAK2 JH1, sequence (O60674 849-1124): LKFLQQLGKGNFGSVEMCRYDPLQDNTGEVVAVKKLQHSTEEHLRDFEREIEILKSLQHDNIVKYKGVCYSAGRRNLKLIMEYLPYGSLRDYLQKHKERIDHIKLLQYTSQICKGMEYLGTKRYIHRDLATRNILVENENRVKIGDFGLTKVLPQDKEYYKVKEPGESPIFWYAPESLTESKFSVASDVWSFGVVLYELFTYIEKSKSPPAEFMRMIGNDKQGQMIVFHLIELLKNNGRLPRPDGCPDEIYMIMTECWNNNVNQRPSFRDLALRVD

[6] = target: TYK2 JH1 (Homo sapiens (Human), UniProt P29597); assay: TYK2 JH1 binding (Kd, Table 2); settings: JH1 domain
TYK2 JH1, sequence (P29597 897-1176): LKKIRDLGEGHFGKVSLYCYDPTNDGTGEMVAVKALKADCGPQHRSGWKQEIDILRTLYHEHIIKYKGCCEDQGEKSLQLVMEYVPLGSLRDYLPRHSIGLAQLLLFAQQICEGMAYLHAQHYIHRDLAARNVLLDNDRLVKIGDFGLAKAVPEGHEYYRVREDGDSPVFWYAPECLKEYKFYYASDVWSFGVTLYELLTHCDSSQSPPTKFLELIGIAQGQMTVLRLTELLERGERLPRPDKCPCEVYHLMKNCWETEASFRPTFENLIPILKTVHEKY

[7] = target: human TYK2 (JH2domain-pseudokinase) (Homo sapiens (Human), UniProt P29597); assay: TYK2 JH2 domain binding assay (KINOMEscan)
human TYK2 (JH2domain-pseudokinase), sequence (P29597 556-888): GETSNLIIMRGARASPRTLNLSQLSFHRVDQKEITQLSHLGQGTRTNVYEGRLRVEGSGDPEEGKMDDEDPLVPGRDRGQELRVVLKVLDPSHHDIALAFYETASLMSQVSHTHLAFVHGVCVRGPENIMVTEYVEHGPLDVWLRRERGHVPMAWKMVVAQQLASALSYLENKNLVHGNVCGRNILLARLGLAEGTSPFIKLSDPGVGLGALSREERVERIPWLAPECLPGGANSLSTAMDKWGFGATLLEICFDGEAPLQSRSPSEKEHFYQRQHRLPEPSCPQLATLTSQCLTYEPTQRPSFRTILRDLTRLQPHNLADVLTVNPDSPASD
Outline: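 KINOMEscan competition: DNA-tagged NFkB-fusion kinase domains from HEK293 extracts (<0.1 nM) bound immobilized ligand with compound for 1 hour at room temperature, 0.9% DMSO. Bead-retained kinase was quantified by qPCR. Kd came from 11-point 3-fold series from 30,000 nM top, in duplicate, Hill fit with slope −1.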

[8] = target: JAK1 JH1 (Homo sapiens (Human), UniProt P23458); assay: JAK1 JH1 binding (Kd, Table 2); settings: JH1 domain
JAK1 JH1, sequence (P23458 875-1153): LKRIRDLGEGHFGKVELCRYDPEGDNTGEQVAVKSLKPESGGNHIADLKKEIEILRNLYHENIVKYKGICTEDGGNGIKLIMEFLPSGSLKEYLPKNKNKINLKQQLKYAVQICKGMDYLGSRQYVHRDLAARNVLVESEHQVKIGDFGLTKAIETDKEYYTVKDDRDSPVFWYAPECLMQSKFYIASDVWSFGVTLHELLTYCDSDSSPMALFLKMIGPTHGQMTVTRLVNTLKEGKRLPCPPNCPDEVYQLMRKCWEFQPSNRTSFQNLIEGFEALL

[9] = target: JAK2 JH2 (Homo sapiens (Human), UniProt O60674); assay: JAK2 JH2 binding (Kd, Table 2); settings: JH2 domain
JAK2 JH2, sequence (O60674 545-809): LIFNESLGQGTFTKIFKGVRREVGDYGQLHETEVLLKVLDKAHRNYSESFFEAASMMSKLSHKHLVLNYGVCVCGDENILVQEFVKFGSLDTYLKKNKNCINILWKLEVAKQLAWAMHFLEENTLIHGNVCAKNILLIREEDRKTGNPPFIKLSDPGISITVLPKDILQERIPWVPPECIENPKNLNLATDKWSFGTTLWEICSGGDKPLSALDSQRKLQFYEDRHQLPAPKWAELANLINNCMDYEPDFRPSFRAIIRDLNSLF

[10] = cn_pd bond, 14-membered ring

JAK3 JH1, sequence (P52333 822-1111): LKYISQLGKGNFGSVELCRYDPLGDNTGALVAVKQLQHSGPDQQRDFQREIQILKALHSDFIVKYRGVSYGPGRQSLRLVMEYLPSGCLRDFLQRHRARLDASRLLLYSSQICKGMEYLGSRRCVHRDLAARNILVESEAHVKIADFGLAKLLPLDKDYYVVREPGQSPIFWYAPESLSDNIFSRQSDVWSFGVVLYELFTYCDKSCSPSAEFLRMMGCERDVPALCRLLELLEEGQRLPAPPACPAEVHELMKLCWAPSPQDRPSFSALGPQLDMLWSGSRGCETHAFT

Row | Compound | Kd [1] [nM] | Kd [3] [nM] | Kd [5] [nM] | Kd [6] [nM] | Kd [7] [nM] | Kd [8] [nM] | Kd [9] [nM] | IC50 [2] [nM] | IC50 [4] [nM] | ring closure, yield after HPLC ([10]; from COc1nc(Br)cn2c(C(=O)N[C@H](C)COCc3cc(N)c4nnn(C)c4c3)c(C)nc12, RuPhos Pd G3/Cs2CO3, 1,4-dioxane, 72.0 mM, 80.0 °C, 4.0 h) [%] | ring closure, yield after HPLC ([10]; from Cc1nc2cnc(Br)cn2c1C(=O)N[C@H](C)COCc1cc(N)c2nnn(C)c2c1, RuPhos Pd G3/Cs2CO3, dioxane, 80.0 °C) [%] | ring closure, yield after HPLC ([10]; from COc1nc(Br)cn2c(C(=O)N[C@H](C)COCc3cc(N)c4nnn(C)c4c3)cnc12, Pd2(dba)3/Xantphos/Cs2CO3, 1,4-dioxane, 61.0 mM, 80.0 °C) [%] | ring closure, yield after HPLC ([10]; from Cc1nc2c(N)nc(Br)cn2c1C(=O)N[C@H](C)COCc1cc(N)c2nnn(C)c2c1, Pd2(dba)3/Xantphos/Cs2CO3, dioxane, 100.0 °C, 16.0 h) [%] | ring closure, yield after HPLC ([10]; from C[C@H](COCc1cc(N)c2nnn(C)c2c1)NC(=O)c1cnc2c(N)nc(Br)cn12, RuPhos Pd G3 (0.5 eq)/Cs2CO3, dioxane, 64.0 mM, 100.0 °C, 16.0 h) [%]
1 | CNc1cc2nn3c(cnc13)C(=O)N[C@H](C)COCc1cc(c3nn(C)nc3c1)N2 [Compound 6] | ≥ 30000 | 10 to 1000 | ≥ 30000 | 1000 to 10000 | < 10 | ≥ 30000 | 1000 to 10000 | < 50 | < 50 |  |  |  |  | 
2 | CNc1cc2nn3c(cnc13)C(=O)N[C@H](C)COCc1cc(c3nnn(C)c3c1)N2 [Compound 5] | ≥ 30000 | 1000 to 10000 | ≥ 30000 | ≥ 30000 | < 10 | ≥ 30000 | 10000 to 30000 | < 50 | < 50 |  |  |  |  | 
3 | CNc1cc2nn3c(cnc13)C(=O)N[C@H](C)COCc1cc(c3c(c1)nnn3C)N2 [Compound 1] | ≥ 30000 | 10 to 1000 | ≥ 30000 | 1000 to 10000 | < 10 | ≥ 30000 | 1000 to 10000 | < 50 | < 50 |  |  |  |  | 
4 | CNc1cc2nn3c(cnc13)C(=O)N[C@H](CO)COCc1cc(c3nnn(C)c3c1)N2 [Compound 2] |  | 10 to 1000 |  | ≥ 30000 | < 10 |  |  | < 50 | ≥ 100 |  |  |  |  | 

The next lines start with results.

Row | Kd [1] [nM] | Kd [3] [nM] | Kd [5] [nM] | Kd [6] [nM] | Kd [7] [nM] | Kd [8] [nM] | Kd [9] [nM] | Compound | IC50 [2] [nM] | IC50 [4] [nM] | ring closure, yield after HPLC ([10]; from COc1nc(Br)cn2c(C(=O)N[C@H](C)COCc3cc(N)c4nnn(C)c4c3)c(C)nc12, RuPhos Pd G3/Cs2CO3, 1,4-dioxane, 72.0 mM, 80.0 °C, 4.0 h) [%] | ring closure, yield after HPLC ([10]; from Cc1nc2cnc(Br)cn2c1C(=O)N[C@H](C)COCc1cc(N)c2nnn(C)c2c1, RuPhos Pd G3/Cs2CO3, dioxane, 80.0 °C) [%] | ring closure, yield after HPLC ([10]; from COc1nc(Br)cn2c(C(=O)N[C@H](C)COCc3cc(N)c4nnn(C)c4c3)cnc12, Pd2(dba)3/Xantphos/Cs2CO3, 1,4-dioxane, 61.0 mM, 80.0 °C) [%] | ring closure, yield after HPLC ([10]; from Cc1nc2c(N)nc(Br)cn2c1C(=O)N[C@H](C)COCc1cc(N)c2nnn(C)c2c1, Pd2(dba)3/Xantphos/Cs2CO3, dioxane, 100.0 °C, 16.0 h) [%] | ring closure, yield after HPLC ([10]; from C[C@H](COCc1cc(N)c2nnn(C)c2c1)NC(=O)c1cnc2c(N)nc(Br)cn12, RuPhos Pd G3 (0.5 eq)/Cs2CO3, dioxane, 64.0 mM, 100.0 °C, 16.0 h) [%]
5 |  |  |  |  | 10 to 1000 |  |  | COc1nc2cn3c(c(C)nc13)C(=O)N[C@H](C)COCc1cc(c3nnn(C)c3c1)N2 [Compound 72] |  |  | 21 |  |  |  | 
6 |  | ≥ 30000 |  | ≥ 30000 | 1000 to 10000 |  |  | Cc1nc2cnc3cn2c1C(=O)N[C@H](C)COCc1cc(c2nnn(C)c2c1)N3 [Compound 81] |  |  |  | 20 |  |  | 
7 |  | ≥ 30000 |  | ≥ 30000 | 1000 to 10000 |  |  | COc1nc2cn3c(cnc13)C(=O)N[C@H](C)COCc1cc(c3nnn(C)c3c1)N2 [Compound 79] |  |  |  |  | 14 |  | 
8 |  |  |  |  | 10 to 1000 |  |  | Cc1nc2c(N)nc3cn2c1C(=O)N[C@H](C)COCc1cc(c2nnn(C)c2c1)N3 [Compound 74] |  |  |  |  |  | 6.2 | 
9 |  |  |  |  | 10 to 1000 |  |  | C[C@@H]1COCc2cc(c3nnn(C)c3c2)Nc2cn3c(cnc3c(N)n2)C(=O)N1 [Compound 73] |  |  |  |  |  |  | 4.4
